{
  "source": "patent US4513009A",
  "about": "“Aminoacid derivatives and their therapeutic applications” (priority 1980, dated 1985)",
  "key": {"[1]": {"biological_target": "enkephalinase (enkephalin dipeptidylcarboxypeptidase)", "experiment": "Determination of enkephalinasic (enkephalin dipeptidylcarboxypeptidasic) activity and effect of inhibitors, striatal membrane fraction, 3H-leucine-enkephalin", "format": "biochemical, rats or mice", "conditions": "10 nM leucine-enkephalin 3H, 25° C., pH 7.4, 15 mn, read-out: 50% inhibitory concentration", "method": "Determination of the \"enkephalinasic\" (enkephalin dipeptidylcarboxypeptidasic) activity and determination of the effect of inhibitors.\nThe enzyme preparation used is a membrane fraction from the striatum of rats or mice.\nThis fraction is obtained by homogenization at 4° C. in 20 volumes Tris-HCl buffer 0.05M (pH 7.4) followed by two successive centrifugations (1000 g×min. and 200,000 g×min.) at the end of which the sediment of the second centrifugation is retained. It is washed by re-suspension in 10 ml of the buffer followed by centrifugation (200,000 g×min) and the resulting sediment is in turn washed superficially to complete the removal of the soluble enzymes. The resulting membrane fraction is taken up into the buffer at 4° C., to obtain a suspension comprising about 1.5 mg proteins per ml.\nAn aliquot sample (50 μl) of the membrane suspension is then incubated in a final volume of 100 μl at 25° C. in the presence of 10 nM leucine-enkephalin ^3 H (39 Ci/mmole), previously purified by column chromatography over Porapak Q (100-120 mesh, Waters Assoc.) and […] puromycine, an aminopeptidase inhibitor. Incubation time is generally set at 15 mn. in order to determine the initial rate of the formation of tripeptide Tyr-Gly-Gly-^3 H characteristic of the enkephalin dipeptidylcarboxypeptidasic (enkephalinasic) activity.\nDetermination of the radioactivity of the tripeptide is effected by liquid scintillation spectrometry. […]"}, "[2]": {"tested_on": "licking reflex of mice on a plate heated at 55° C.", "experiment": "Hot-plate test (55° C.): specific antalgic effect", "format": "in vivo", "conditions": "intravenous", "method": "Licking reflex of mice on a plate heated at 55° C. according to the method of Jacob. and co-workers (Arch. Int. Pharmacodyn. 122, 287-300, 1959: 133, 296-300, 1961).\n(b) Specific antalgic effect"}, "[3]": {"tested_on": "phenylbenzoquinone-induced pain", "experiment": "Phenylbenzoquinone or writhing test", "format": "in vivo", "conditions": "0.7 mg/kg i.v.; vs controls p<0.01", "source_text": "3--Phenylbenzoquinone or \"writhing test\" according to the method of SIEGMUND and co-workers (Proc. Soc. Expert. Biol. Med. 1957, 95, 729-731)."}, "mice [4]": {"tested_on": "mice", "conditions": "mouse, in vivo"}, "mice [5]": {"tested_on": "mice", "experiment": "Subacute toxicity, 3 weeks in mice, with reversibility test", "conditions": "50 mg/kg 3 times/day, vs solvent controls"}},
  "data": [
    {"smiles": "CC(=O)SCC(Cc1ccccc1)C(=O)NCC(=O)OCc1ccccc1", "note": "(stereo not drawn) [Compound 53, N-[3-Acetylthio-2-benzylpropanoyl]glycine benzyl ester]", "values": [
      {"measurement": "IC50", "setting": "[1]", "value": 380, "unit": "nM"},
      {"measurement": "ED50", "setting": "[2]; Mus musculus, hot plate 55° C.", "value": 3, "unit": "mg/kg"},
      {"measurement": "antalgic effect in the hot (55° C.) plate test", "setting": "[2]", "value": "have an antalgic effect"},
      {"measurement": "protection from phenylbenzoquinone-induced pain", "setting": "[3]", "value": "protect the treated animals from phenylbenzoquinone-induced pain, with a significant difference with respect to the controls, p<0.01"},
      {"measurement": "tolerance, habit-forming and weaning phenomena (reversibility test)", "setting": "mice [4]", "value": "no sign of tolerance, of habit-forming, and no weaning phenomena could be observed"},
      {"measurement": "weight of the organs and their anatomic-pathologic examination", "setting": "mice [5]", "value": "failed to show any difference with respect to the solvent controls"}
    ]}
  ]
}
